Data on two molecules can be found in patent US11027155B2, “Method for prevention and treatment of diabetic kidney disease” (priority 2019, dated 2021).

One data set concerns C-Reactive Protein. Kind of data set: C-Reactive Protein immunoassay in serum. As to conditions: 4 weeks after being fed with the special diets. The data set is classed as in vivo, mice. The text has this: At 9 weeks old, the double homozygous mutant eNOS/db mice were separated in two similar groups regarding sex, body weight, non-fasting plasma glucose concentrations, and consanguinity. Experimental animals were fed at libitum identical artificial diets formulated by Envigo-Teklad, containing or not 5% of 4-MU sodium salt (Sigma, cat. no. M1508) until 19 weeks of age. Both diets provided 3.5 Kcal/g and contained by weight: 17.7% of protein, 53.7% of carbohydrate, and 7.2% of fat. Diets were kept sealed under vacuum at −20° C. protected from light. Every week, the old food was removed, and animals were provided fresh food pellets. […] C—RP is considering the gold standard marker for inflammation and the lack of differences in this protein between our experimental mice points out that 4-MU is not affecting the development of DKD by crucially changing the inflammatory responses in our diabetic animals but for other mechanism of action.

Data set [1] concerns eNOS−/−/db/db mice. Nature of the data set: Comparison of kidney morphology. As to conditions: diabetic mice fed 4-MU diet vs control diet. The data set is classed as in vivo. The text has this: (§1) The present disclosure describes a new use of HA synthesis inhibitors for the treatment of Diabetic Kidney Disease. To study the effects of HA inhibitors on the development of DKD, our experiments were done by providing the test drug (4-Methylumbelliferone, 4-MU) in the food to one of the best available murine models of diabetic nephropathy, the diabetic and moderately hypertensive endothelial nitric oxide synthase/leptin receptor deficient (eNOS−/−/db/db) mice (Mohan S., et al. Laboratory Investigation. 2008, vol. 88, p. 515-528; Betz B., at al. Nephron Exp Nephrol. 2014, vol. 126, p. 191-195). At 9 weeks old, the double homozygous mutant eNOS/db mice were separated in two similar groups regarding sex, body weight, non-fasting plasma glucose concentrations, and consanguinity. Experimental animals were fed at libitum identical artificial diets formulated by Envigo-Teklad, containing or not 5% of 4-MU sodium salt (Sigma, cat. no. M1508) until 19 weeks of age. Both diets provided 3.5 Kcal/g and contained by weight: 17.7% of protein, 53.7% of carbohydrate, and 7.2% of fat. Diets were kept sealed under vacuum at −20° C. protected from light. Every week, the old food was removed, and animals were provided fresh food pellets.

Another data set has as its system plasma glucose. Kind of data set: Non-fasting plasma glucose (commercial kit EIAGLUC). The data set is classed as in vivo, mice. As to conditions: 4-MU-treated vs control, end of the experiments (18-week-old). The text has this:
At 9 weeks old, the double homozygous mutant eNOS/db mice were separated in two similar groups regarding sex, body weight, non-fasting plasma glucose concentrations, and consanguinity. Experimental animals were fed at libitum identical artificial diets formulated by Envigo-Teklad, containing or not 5% of 4-MU sodium salt (Sigma, cat. no. M1508) until 19 weeks of age. Both diets provided 3.5 Kcal/g and contained by weight: 17.7% of protein, 53.7% of carbohydrate, and 7.2% of fat. Diets were kept sealed under vacuum at -20° C. protected from light. Every week, the old food was removed, and animals were provided fresh food pellets. Plasma glucose levels were measured using a commercial kit ([…], Invitrogen). […] This fact remarks an important difference between our invention and the use of 4-MU to treat autoimmune diabetes.

The subject of the next data set is type 1 diabetes. The settings on record: after the onset of autoimmune insulitis, two mice models; cited from earlier work.
The test system of data set [2] is eNOS−/−/db/db mice. Nature of the data set: Glomerular Filtration Rate by single bolus FITC-inulin in conscious mice. Type of data set: in vivo.
Source text: as §1, with “[…] In our experiments, GFR” for “Diets”, “determined before (week 8)” for “kept sealed under vacuum at −20° C. protected from light. Every week, the old food was removed,”, “after 10 week of treatments (week 18) by a single bolus injection of fluorescein isothiocyanate-(FITC) labeled inulin in conscious mice (Rieg T. J Vis Exp. 2013, May 10: e50330, doi: 10.3791/50330). […]” for “animals were provided fresh food pellets.”

The test system of another data set is malignant tumor cells. The settings on record: in vitro and animal models of liver, breast, prostate, pancreatic, and renal carcinomas; cited from earlier work.
For the next data set, the system named is HA synthesis. The settings on record: cited from earlier work.
In data set [3] the test system is aortic smooth muscle cell (aSMC). As to conditions: in vitro; cited from earlier work.
For data set [4] the following is noted: cited from earlier work.
Data set [5] has as its system LPS-Induced Lung Inflammation. As to conditions: mice; cited from earlier work.
The next data set deals with hyaluronan. Nature of the data set: Serum hyaluronan content in 4-MU fed diabetic nephropathy mice. Type of data set: in vivo. The settings on record: 4-MU fed animals, 5% 4-MU sodium salt in diet, after 3 weeks of treatment.
Source text: as §1, with “pellets. […] We detected in 4-MU fed animals a reduction of serum hyaluronan content of about 30% after 3 weeks of treatment.” for “pellets.”

Data set [6] relates to renal ischemia-reperfusion injury (IRI). The settings on record: cited from earlier work.
A short description of data set [7]: Body weight and appearance monitored weekly in eNOS/db mice. The data set is classed as in vivo. The text has this: The present disclosure describes a new use of HA synthesis inhibitors for the treatment of Diabetic Kidney Disease. To study the effects of HA inhibitors on the development of DKD, our experiments were done by providing the test drug (4-Methylumbelliferone, 4-MU) in the food to one of the best available murine models of diabetic nephropathy, the diabetic and moderately hypertensive endothelial nitric oxide synthase/leptin receptor deficient (eNOS−/−/db/db) mice (Mohan S., et al. Laboratory Investigation. 2008, vol. 88, p. 515-528; Betz B., at al. Nephron Exp Nephrol. 2014, vol. 126, p. 191-195).
At 9 weeks old, the double homozygous mutant eNOS/db mice were separated in two similar groups regarding sex, body weight, non-fasting plasma glucose concentrations, and consanguinity. Experimental animals were fed at libitum identical artificial diets formulated by Envigo-Teklad, containing or not 5% of 4-MU sodium salt (Sigma, cat. no. M1508) until 19 weeks of age. Both diets provided 3.5 Kcal/g and contained by weight: 17.7% of protein, 53.7% of carbohydrate, and 7.2% of fat. Diets were kept sealed under vacuum at −20° C. protected from light. Every week, the old food was removed, and animals were provided fresh food pellets.
The weight and appearance of the animals was monitored weekly.

Data set [8] relates to eNOS−/−/db/db mice. Nature of the data set: Kidney histopathology (H&E, PAS), semi-quantitative glomerular index. Type of data set: in vivo. The text has this: The present disclosure describes a new use of HA synthesis inhibitors for the treatment of Diabetic Kidney Disease. To study the effects of HA inhibitors on the development of DKD, our experiments were done by providing the test drug (4-Methylumbelliferone, 4-MU) in the food to one of the best available murine models of diabetic nephropathy, the diabetic and moderately hypertensive endothelial nitric oxide synthase/leptin receptor deficient (eNOS−/−/db/db) mice (Mohan S., et al. Laboratory Investigation. 2008, vol. 88, p. 515-528; Betz B., at al. Nephron Exp Nephrol. 2014, vol. 126, p. 191-195). At 9 weeks old, the double homozygous mutant eNOS/db mice were separated in two similar groups regarding sex, body weight, non-fasting plasma glucose concentrations, and consanguinity. Experimental animals were fed at libitum identical artificial diets formulated by Envigo-Teklad, containing or not 5% of 4-MU sodium salt (Sigma, cat. no. M1508) until 19 weeks of age. Both diets provided 3.5 Kcal/g and contained by weight: 17.7% of protein, 53.7% of carbohydrate, and 7.2% of fat. Diets were kept sealed under vacuum at −20° C. protected from light. Every week, the old food was removed, and animals were provided fresh food pellets. Finally, for histopathology analysis kidneys were collected from 4-MU-treated and control mice at the end of the experiment. Organs were fixed in 10% NB formalin for 44 hours, embedded in paraffin, and 3 urn sections were stained with Hematoxylin and Eosin (H&E) or Periodic acid—Schiff (PAS), before being examined following Zhao H J et al. (Zhao H. J., et al. J Am Soc Nephrol. 2006, vol. 17, p. 2664-2669). A semi-quantitative index was used to evaluate the degree of glomerular mesangial expansion and sclerosis. 50 glomeruli on a single section (25 from each kidney) were scored from 0 to 4, where 0 represents no lesions and 1, 2, 3, and 4 represent mesangial matrix expansion or sclerosis involving less than or equal to 25, 26-50, 51-75, or >75% of the glomerular tuft area, respectively. End stage sclerotic glomeruli (glomerulosclerosis) were counted, as well as the number of glomeruli that contained nodules, and the percentage of affected glomeruli within the 50 analyzed. Histopathology staining and analyses were done by an independent service and the specialists were blind regarding the nature of the samples.

The next data set concerns diabetic patients. As to conditions: cited from earlier work.
Where [9] appears, read: 4-MU-treated vs control, end of the experiment.

“Also recorded” adds a separate entry of the source.

`Cc1cc(=O)oc2cc(O)ccc12` [4-MU, 4-Methylumbelliferone]: in the data set on C-Reactive Protein, the “C-RP values in serum, treated vs untreated” value is “No significant difference; also recorded: not significant differences”. The kidney morphology entry with eNOS−/−/db/db mice [1] was “abnormalities are less pronounced; also recorded: less advanced degree of DKD”. Besides, the “non-fasting plasma glucose levels” value in the data set with plasma glucose is listed as “No significant difference; also recorded: did not affect”. Further, in the data set on type 1 diabetes, the “progression to type 1 diabetes” value is “halted progression to type 1 diabetes”. For the same molecule, the “GFR, initial (week 7-8) vs final (week 18) in treated mice” value in the data set with eNOS−/−/db/db mice [2] (after 10 week of treatments) was “No significant difference; also recorded: kept their GFR values unchanged”. Further, the “progression of DKD” value with eNOS−/−/db/db mice [2] (from GFR results) is “significantly delayed the progression of DKD”. Also, in the data set with malignant tumor cells, the “cytostatic / anti-metastatic effect on malignant tumor cells” value was “useful as cytostatic or in preventing metastasis”. In addition, in the data set on HA synthesis, the HA synthesis result is listed as “selectively inhibited”. In addition, in [3], the aSMC apoptosis entry was “induced apoptosis” and the “aSMC proliferation, migration” value was “blocked”. The “metabolism in vivo to 4-MUG and 4-MUS” value in data set [4] was “rapidly metabolized”. Also, the “LPS-Induced Lung Inflammation” value in data set [5] is reported as “can suppress”. In the data set on hyaluronan, the “reduction of serum hyaluronan content” value is “about 30%”. Also, in data set [6] (4-MU treatment), the “hyaluronan content in kidneys” value was “can reduce”. Also, the “renal ischemia-reperfusion injury after kidney transplants” value in data set [6] (inhibition pre and post-operatively) is “protective”. Also, the “overall health and survival” value in [7] (DKD animals) is “impacted their overall health and survival”. Also, in data set [7] (eNOS/db mice, 4-MU diet from 9 to 19 weeks of age), the “body weight over time vs control diet” value was “keep their body weight for a longer period; also recorded: kept their body weight longer”. In addition, the “weight loss (final weight divided by maximum reached weight) vs control” value in data set [7] (final stages of the disease, end of the experiments) is reported as “significant difference in weight loss; also recorded: control diet lost significantly more weight than the mice treated with 4-MU”. Besides, in the data set on eNOS−/−/db/db mice [8] (4-MU-treated mice, unlike control), the “signs of nephritis and tubulitis” value is “did not found signs”. In the data set on eNOS−/−/db/db mice [8] (setting [9]), the glomerular injury index entry is on record as “significant lower” and the nodular glomerulosclerosis entry is listed as “lower”. The “degree of kidney injuries (histopathology summary)” value in the data set with eNOS−/−/db/db mice [8] (FIG. 8) is on record as “lower degree of kidney injuries”.
Turning to `Cc1ccc([C@@H]2O[C@H](CO)[C@@H](O)[C@H](O)[C@H]2O)cc1Cc1ccc(-c2ccc(F)cc2)s1` [canagliflozin], the “vascular and renal effects” value in the data set with diabetic patients was “vascular and renal protective effects”.
